Results published in publication PMC6079014, “Calcium is an essential cofactor for metal efflux by the ferroportin transporter family” (Nature Communications, 2018).

Assays:
Fpn-C2-E219A = biological target: T1, Fpn-C2-E219A (Mus musculus, UniProt Q9JHI9, DEL251-290/DEL401-449/E219A); test: Isothermal titration calorimetry, Fpn-C2-E219A mutant; assay type: binding
T1 construct: generated from full-length mouse Fpn (UniProt: Q9JHI9); GFP (C); made in house; host or cells: Sf9 insect cells (baculovirus)
T1 sequence (Q9JHI9 with tags, fused parts or gaps E219A/DEL251-290/DEL401-449): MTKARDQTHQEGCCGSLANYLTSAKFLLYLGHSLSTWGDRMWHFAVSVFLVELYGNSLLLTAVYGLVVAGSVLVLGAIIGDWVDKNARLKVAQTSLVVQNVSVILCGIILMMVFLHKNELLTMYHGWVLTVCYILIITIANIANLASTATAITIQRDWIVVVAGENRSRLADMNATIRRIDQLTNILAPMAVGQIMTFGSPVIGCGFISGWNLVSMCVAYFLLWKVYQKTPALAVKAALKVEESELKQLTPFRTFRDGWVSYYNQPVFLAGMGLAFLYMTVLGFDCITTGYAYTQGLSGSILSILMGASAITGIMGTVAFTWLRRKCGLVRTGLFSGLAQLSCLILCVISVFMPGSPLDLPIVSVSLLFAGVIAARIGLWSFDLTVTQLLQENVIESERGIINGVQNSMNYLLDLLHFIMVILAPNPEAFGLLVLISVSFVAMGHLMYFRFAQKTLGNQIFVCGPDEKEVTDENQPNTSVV
Description: To obtain a purified mammalian Fpn protein conducive for biophysical studies, we generated a protein construct with an increased thermal stability (Deshpande et al., 2018). In brief, the construct (Fpn-C2) was generated from full-length mouse Fpn (UniProt: Q9JHI9 [https://www.uniprot.org/uniprot/Q9JHI9]) by deleting two-loop regions (residues 251–290 and 401–449), followed by an overlapping PCR incorporating the E219A mutation to generate Fpn-C2-E219A. […]
For Fpn-C2 and Fpn-C2-E219A purification (Deshpande et al., 2018), Sf9 cells were thawed at room temperature with the addition of 2 μl Benzonase (250 units/μL, Sigma-Aldrich), 1 mM MgSO4, 0.2 mM PMSF, and lysed by a single pass through cooled EmulsiFlex-C3 homogenizer (Avestin). […] The SEC eluted protein was concentrated to ~10 mg/ml as determined by the BCA assay (Thermo Fisher Scientific) method and stored at −80 °C until further use. […]
In each experiment, the protein solution was loaded into the sample cell, and the ligand solution was loaded in the syringe. […] To obtain the effective heat of binding, the heat of dilution, measured by injecting the ligand solution alone into buffer, was subtracted prior to data analysis. […]

human Fpn = biological target: T2, human Fpn (Homo sapiens, UniProt Q9NP59); test: 55Fe efflux from HEK293T cells with tet-inducible human Fpn; assay type: cell-based
T2 construct: expressed in transfected cells; host or cells: Xenopus laevis oocytes injected with Fpn RNA
T2 sequence (Q9NP59 1-571): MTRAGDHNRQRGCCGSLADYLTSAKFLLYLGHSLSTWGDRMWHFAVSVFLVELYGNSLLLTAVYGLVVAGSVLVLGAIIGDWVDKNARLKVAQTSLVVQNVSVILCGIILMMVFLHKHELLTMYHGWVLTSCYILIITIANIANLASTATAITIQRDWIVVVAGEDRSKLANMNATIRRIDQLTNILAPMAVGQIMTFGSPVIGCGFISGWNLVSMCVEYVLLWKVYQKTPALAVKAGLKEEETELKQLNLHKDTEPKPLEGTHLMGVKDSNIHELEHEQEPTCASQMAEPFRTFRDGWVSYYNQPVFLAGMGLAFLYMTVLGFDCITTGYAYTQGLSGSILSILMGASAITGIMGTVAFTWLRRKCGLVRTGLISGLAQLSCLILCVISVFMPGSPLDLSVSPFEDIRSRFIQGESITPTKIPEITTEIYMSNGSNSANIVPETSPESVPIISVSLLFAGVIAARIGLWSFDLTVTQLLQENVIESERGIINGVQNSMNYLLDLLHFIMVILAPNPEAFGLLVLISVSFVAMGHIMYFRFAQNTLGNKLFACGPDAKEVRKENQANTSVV
Description: We measured ^55Fe efflux from HEK293 cells (E. Nemeth, UCLA) that were stably transfected with a tet-inducible human Fpn construct in pcDNA5/FRT/TO vector (Invitrogen) as described. Fpn expression was induced by adding 0.5 µg/ml doxycycline; data represent % efflux in induced minus uninduced cells. Fpn expression in mammalian cells was confirmed by visualizing GFP fluorescence, which was unaffected by removal of extracellular calcium.

In the case of [Ca+2] [Ca^2+, calcium], the “Binding to Fpn-C2-E219A by ITC (in words)” value (Fpn-C2-E219A) was “no binding”, the “Effect of extracellular Ca2+ on 55Fe efflux” value (human Fpn; HEK293T cells, 1 mM Ca2+, over 6 h (P = 0.002) and 24 h (P < 0.001), not at earlier time points) was “significantly activated” and the “Effect of removal of extracellular Ca2+ on Fpn-mediated 55Fe efflux” value (human Fpn; HEK cells, 0 Ca2+ + 1 mM EGTA vs 1 mM Ca2+) was “abolished”.
